From US20230150970A1, “AMINOPYRIMIDINE DERIVATIVES AND THEIR USE AS ARYL HYDROCARBON RECEPTOR MODULATORS” (DONG-A ST CO., LTD., priority 2020, published 2023) come the findings set out here.

The experiment deals with T1, AhR (Homo sapiens, UniProt P35869).
T1 sequence (P35869 11-848): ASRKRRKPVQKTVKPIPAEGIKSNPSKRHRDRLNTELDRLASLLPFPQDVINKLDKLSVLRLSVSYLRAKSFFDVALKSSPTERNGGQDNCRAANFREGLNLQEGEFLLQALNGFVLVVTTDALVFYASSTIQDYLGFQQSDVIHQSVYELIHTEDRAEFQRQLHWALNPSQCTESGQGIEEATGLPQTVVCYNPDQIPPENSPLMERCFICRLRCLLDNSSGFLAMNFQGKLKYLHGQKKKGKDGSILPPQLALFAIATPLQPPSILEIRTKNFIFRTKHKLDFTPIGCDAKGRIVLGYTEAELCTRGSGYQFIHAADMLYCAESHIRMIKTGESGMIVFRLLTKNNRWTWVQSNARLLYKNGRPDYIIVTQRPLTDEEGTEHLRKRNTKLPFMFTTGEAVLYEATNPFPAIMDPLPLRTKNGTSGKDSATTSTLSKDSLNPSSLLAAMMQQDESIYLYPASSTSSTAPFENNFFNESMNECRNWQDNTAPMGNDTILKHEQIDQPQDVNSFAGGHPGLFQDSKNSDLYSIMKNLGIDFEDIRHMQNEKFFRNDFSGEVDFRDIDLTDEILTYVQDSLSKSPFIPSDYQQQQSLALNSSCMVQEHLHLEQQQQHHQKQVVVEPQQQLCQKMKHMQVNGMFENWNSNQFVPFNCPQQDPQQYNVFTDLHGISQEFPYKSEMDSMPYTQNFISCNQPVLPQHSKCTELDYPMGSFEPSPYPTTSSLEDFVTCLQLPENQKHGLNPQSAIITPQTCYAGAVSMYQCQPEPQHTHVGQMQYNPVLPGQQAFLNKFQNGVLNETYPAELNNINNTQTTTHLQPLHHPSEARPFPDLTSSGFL
The experiment in a line: In Vitro Assay 1: XRE-luciferase reporter assay, antagonism in human cell line (HepG2). The following applies: Assay 1: AhR-Luc Human Antagonism (IC50, nM), 6 hours. Background: A reporter such as luciferase makes a cellular process visible.

The mark [1] stands for this setting: values marked *: kynurenine 50 μM.
Where [2] appears, read: unmarked values: kynurenine 200 μM.

Consider `O[C@H]1CCN(c2cc(-c3ccc(Cl)cc3)nc(-c3cccnc3)n2)C[C@H]1F` [Example 220, (3R,4S)-1-(6-(4-chlorophenyl)-2-(pyridin-3-yl)pyrimidin-4-yl)-3-fluoropiperidin-4-ol], for which the IC50 (in general, the concentration that inhibits the measured activity by half) under setting [1] was in the range of 10 to 100 nM.

As to `O[C@@H]1CCN(c2cc(-c3ccc(Cl)cc3)nc(-c3cccnc3)n2)C[C@H]1F` [Example 221, (3R,4R)-1-(6-(4-chlorophenyl)-2-(pyridin-3-yl)pyrimidin-4-yl)-3-fluoropiperidin-4-ol], the IC50 under setting [1] is 10 to 100 nM.

Take `O[C@H]1CCN(c2cc(-c3ccc(Cl)cc3)nc(-c3cccnc3)n2)C[C@@H]1F` [Example 222, (3S,4S)-1-(6-(4-chlorophenyl)-2-(pyridin-3-yl)pyrimidin-4-yl)-3-fluoropiperidin-4-ol]: the IC50 under setting [1] was below 10 nM.

Under setting [1], `O=C(CO)N1CCN(c2cc(-c3ccc(Cl)cc3)nc(-c3cccnc3)n2)CC1` [Example 223, 1-(4-(6-(4-chlorophenyl)-2-(pyridin-3-yl)pyrimidin-4-yl)piperazin-1-yl)-2-hydroxyethan-1-one] showed an IC50 below 10 nM.

With `OCC1CCN(c2cc(-c3ccc(OC(F)(F)F)cc3)nc(-c3cccnc3)n2)CC1` [Example 227, (1-(2-(pyridin-3-yl)-6-(4-(trifluoromethoxy)phenyl)pyrimidin-4-yl)piperidin-4-yl)methanol], the IC50 under setting [2] lay in the range of 10 to 100 nM.

Under setting [1], `OCC1CCN(c2cc(-c3ccc(Cl)cc3)nc(-c3cccnc3)n2)CC1O` (stereo not shown) [Example 233, 1-(6-(4-chlorophenyl)-2-(pyridin-3-yl)pyrimidin-4-yl)-4-(hydroxymethyl)piperidin-3-ol] displayed an IC50 below 10 nM.

Consider `O[C@@H]1CN(c2cc(-c3ccc(Cl)cc3)nc(-c3cccnc3)n2)C[C@H]1F` [Example 234, (3R,4R)-1-(6-(4-chlorophenyl)-2-(pyridin-3-yl)pyrimidin-4-yl)-4-fluoropyrrolidin-3-ol], for which, under setting [1], the IC50 is below 10 nM.

The molecule `CC(O)C(=O)NC1CCN(c2cc(-c3ccc(Cl)cc3)nc(-c3cccnc3)n2)CC1` (stereo not shown) [Example 237, N-(1-(6-(4-chlorophenyl)-2-(pyridin-3-yl)pyrimidin-4-yl)piperidin-4-yl)-2-hydroxypropanamide] showed a 50% inhibitory concentration (IC50) under setting [2] of 10 to 100 nM.

Turning to `O=C(CO)NC1CCN(c2cc(-c3ccc(Cl)cc3)nc(-c3cccnc3)n2)CC1` [Example 238, N-(1-(6-(4-chlorophenyl)-2-(pyridin-3-yl)pyrimidin-4-yl)piperidin-4-yl)-2-hydroxyacetamide], the IC50 under setting [2] is 10 to 100 nM.

For the molecule `OC[C@H]1CCN(c2cc(-c3ccc(Cl)cc3)nc(-c3cccnc3)n2)C1` [Example 240, (S)-(1-(6-(4-chlorophenyl)-2-(pyridin-3-yl)pyrimidin-4-yl)pyrrolidin-3-yl)methanol], under setting [2], the IC50 was below 10 nM.

`CC(=O)N[C@@H]1CN(c2cc(-c3ccc(Cl)cc3)nc(-c3cccnc3)n2)C[C@H]1O` [Example 241, N-((3R,4R)-1-(6-(4-chlorophenyl)-2-(pyridin-3-yl)pyrimidin-4-yl)-4-hydroxypyrrolidin-3-yl)acetamide] registered an IC50 under setting [2] of 10 to 100 nM.

For `CC(=O)N[C@@H]1CN(c2cc(-c3ccc(Cl)cc3)nc(-c3cccnc3)n2)C[C@H]1OC(C)=O` [Example 242, (3R,4R)-4-acetamido-1-(6-(4-chlorophenyl)-2-(pyridin-3-yl)pyrimidin-4-yl)pyrrolidin-3-yl acetate], the IC50 under setting [2] fell in the range of 10 to 100 nM.

The molecule `CC(=O)N[C@H]1CN(c2cc(-c3ccc(Cl)cc3)nc(-c3cccnc3)n2)C[C@H]1O` [Example 244, N-((3S,4R)-1-(6-(4-chlorophenyl)-2-(pyridin-3-yl)pyrimidin-4-yl)-4-hydroxypyrrolidin-3-yl)acetamide] registered an IC50 under setting [2] above 1000 nM.

`CC(=O)N[C@H]1CN(c2cc(-c3ccc(Cl)cc3)nc(-c3cccnc3)n2)C[C@@H]1O` [Example 245, N-((3S,4S)-1-(6-(4-chlorophenyl)-2-(pyridin-3-yl)pyrimidin-4-yl)-4-hydroxypyrrolidin-3-yl)acetamide] gave an IC50 under setting [2] of 10 to 100 nM.

In the case of `OC[C@H]1CCN(c2cc(-c3ccc(Cl)cc3)nc(-c3cccnc3)n2)C[C@H]1O` [Example 247, (3S,4R)-1-(6-(4-chlorophenyl)-2-(pyridin-3-yl)pyrimidin-4-yl)-4-(hydroxymethyl)piperidin-3-ol], the IC50 under setting [2] is 10 to 100 nM.

Turning to `OC[C@H]1CCN(c2cc(-c3ccc(C(F)(F)F)cc3)nc(-c3cccnc3)n2)C[C@H]1O` [Example 248, (3S,4R)-4-(hydroxymethyl)-1-(2-(pyridin-3-yl)-6-(4-(trifluoromethyl)phenyl)pyrimidin-4-yl)piperidin-3-ol], the IC50 under setting [2] lay within 10 to 100 nM.

In turn, `OC[C@H]1CCN(c2cc(-c3ccc(Cl)cc3)nc(-c3cccnc3)n2)C[C@H]1F` [Example 249, ((3S,4R)-1-(6-(4-chlorophenyl)-2-(pyridin-3-yl)pyrimidin-4-yl)-3-fluoropiperidin-4-yl)methanol] displayed a 50% inhibitory concentration (IC50) under setting [2] of 10 to 100 nM.

In the case of `OC[C@H]1CCN(c2cc(-c3ccc(C(F)(F)F)cc3)nc(-c3cccnc3)n2)C[C@H]1F` [Example 250, ((3S,4R)-3-fluoro-1-(2-(pyridin-3-yl)-6-(4-(trifluoromethyl)phenyl)pyrimidin-4-yl)piperidin-4-yl)methanol], the IC50 under setting [2] is below 10 nM.

In the case of `OC[C@@H]1CCN(c2cc(-c3ccc(Cl)cc3)nc(-c3cccnc3)n2)C[C@@H]1F` [Example 251, ((3R,4S)-1-(6-(4-chlorophenyl)-2-(pyridin-3-yl)pyrimidin-4-yl)-3-fluoropiperidin-4-yl)methanol], under setting [2], the IC50 was below 10 nM.

In the case of `OC[C@@H]1CCN(c2cc(-c3ccc(C(F)(F)F)cc3)nc(-c3cccnc3)n2)C[C@@H]1F` [Example 252, ((3R,4S)-3-fluoro-1-(2-(pyridin-3-yl)-6-(4-(trifluoromethyl)phenyl)pyrimidin-4-yl)piperidin-4-yl)methanol], under setting [2], the IC50 was below 10 nM.

Under setting [2], `OC[C@H]1CCN(c2cc(-c3ccc(Cl)cc3)nc(-c3cccnc3)n2)C[C@@H]1F` [Example 253, ((3R,4R)-1-(6-(4-chlorophenyl)-2-(pyridin-3-yl)pyrimidin-4-yl)-3-fluoropiperidin-4-yl)methanol] had an IC50 below 10 nM.

Turning to `OC[C@H]1CCN(c2cc(-c3ccc(C(F)(F)F)cc3)nc(-c3cccnc3)n2)C[C@@H]1F` [Example 254, ((3R,4R)-3-fluoro-1-(2-(pyridin-3-yl)-6-(4-(trifluoromethyl)phenyl)pyrimidin-4-yl)piperidin-4-yl)methanol], under setting [2], the IC50 is below 10 nM.

`OC[C@H]1CN(c2cc(-c3ccc(Cl)cc3)nc(-c3cccnc3)n2)C[C@H]1O` [Example 255, (3S,4R)-1-(6-(4-chlorophenyl)-2-(pyridin-3-yl)pyrimidin-4-yl)-4-(hydroxymethyl)pyrrolidin-3-ol] registered an IC50 under setting [2] of 10 to 100 nM.

Under setting [2], `OC[C@H]1CN(c2cc(-c3ccc(C(F)(F)F)cc3)nc(-c3cccnc3)n2)C[C@H]1O` [Example 256, (3S,4R)-4-(hydroxymethyl)-1-(2-(pyridin-3-yl)-6-(4-(trifluoromethyl)phenyl)pyrimidin-4-yl)pyrrolidin-3-ol] gave an IC50 below 10 nM.

Under setting [2], `OC[C@H]1CN(c2cc(-c3ccc(Cl)cc3)nc(-c3cccnc3)n2)C[C@@H]1O` [Example 257, (3R,4R)-1-(6-(4-chlorophenyl)-2-(pyridin-3-yl)pyrimidin-4-yl)-4-(hydroxymethyl)pyrrolidin-3-ol] had an IC50 below 10 nM.
